Measured values from patent publication US11744273B2, “Sweetness enhancing volatile compositions and methods of increasing perceived sweetness of a comestible” (University of Florida Research Foundation, Inc., priority 2016, dated 2023).

Assays:
Assay type in all cases: in vivo, human
[1] = test system: sweetness; experiment: Orange juice; partial least squares regression of volatiles against sweetness independent of total sugar (Table 9)
Experimental: Volatile content of orange juice was assessed and analyzed similar to as described above for tomato, strawberry, and blueberry, described above. The process for obtaining volatile samples from orange juice was slightly different than for tomatoes, strawberries and blueberries. […] Briefly, instead of collecting volatiles at room temperature from a fruit mash in headspace of a closed area, the volatiles were elicited by heating the juice to collect volatiles.

[2] = test system: perceived sweetness; experiment: Tomato taste panel; revised partial least squares regression against sweetness independent of fructose or glucose (Table 4); settings: for FRUCTOSE t RATIO: sweetness independent of fructose; for GLUCOSE t RATIO: sweetness independent of glucose
Experimental: (§1) Fully ripe fruit were harvested, and used for taste panels. A random subset of fruit was used for biochemical analysis. Three biological replicates, each consisting of 2-20 fruit (depending on fruit size), were assayed for each variety. […] Panelists were between the ages of 18 and 78 with a median age of 22. […] An average of 85 (range of 66-95) of these panelists evaluated between 4-6 varieties in a session. All panelists went through a training session to familiarize them with the scaling and procedures. Tomatoes were sliced into wedges (or in halves for grape/cherry types) and each panelist was given two pieces for evaluation. Panelists took a bite of each sample, chewed and swallowed it, and rated overall liking and liking for texture. They then rated the perceived intensities of sweetness, sourness, saltiness, umami sensation, bitterness and overall tomato flavor. They were free to take as many bites as necessary to complete the assessments. They were instructed to take a bite of an unsalted cracker and a sip of water between samples. Samples were presented to the panelists in a randomized order. Hedonic ratings used the hedonic gLMS. This scale assesses the liking for tomatoes in the context of all pleasure/displeasure experiences: 0=neutral, −100=strongest disliking of any kind experienced, and +100=strongest liking of any kind experienced. Sensory intensity ratings used the gLMS (7,8,19). This scale assesses taste and flavor sensations in the context of all sensory experience (7): 0=no sensation, 100=strongest sensation of any kind experienced. Both scales were devised to provide valid comparisons across subjects.
Biochemical and psychophysical data sets from fruit and fruit taste panels are mathematically probed for relationships using standard least squares and partial least squares regression modeling techniques (SAS JMP Pro 12.0.1 and R version 3.2.4 statistical software packages). The exact regression type is dependent on the structure of the data, i.e. depending on the size and distributions of the overall datasets.

[3] = test system: flavor intensity; experiment: Tomato taste panel; association of compounds with tomato flavor intensity; settings: for association with flavor intensity: univariate models
Experimental: as §1
(§2) The 68 chemical compounds measured in this experiment were initially divided into six groups based upon biochemical properties: sugars, branched chain amino acids, lipids, carotenoids, phenolics, and acids. A small number of compounds for which biosynthetic pathways are not established were assigned to one of the six classes based upon their correlations with other classified compounds. All pairwise correlations among the set of 68 compounds were calculated. Correlation coefficients were sorted using Modulated Modularity Clustering (MMC) (9) as a visual aid for identifying compounds that are closely related in this sample. Biochemical groups were examined for compounds within the group that were highly correlated and compounds that were upstream in the relevant metabolic pathways were preferentially selected.
(§3) All analyses were performed in SAS v 9.2.
Due to the large number of chemicals potentially influencing liking, a multivariate analysis of the data was performed. The attributes were initially partitioned into six groups based upon chemical properties and biosynthetic pathways: sugars, branched chain amino acids, fatty acids, carotenoids, phenolics, and acids. […] Groups of structurally related chemicals with known metabolic links were examined for compounds within each module that were highly colinear and compounds that were upstream in relevant metabolic pathways were preferentially selected.

[4] = test system: perceived sweetness; experiment: Tomato taste panel; initial multiple regression of volatiles against perceived sweetness (Table 3); settings: for t: tomato volatiles, multiple regression, contribution to sweetness independent of the measures of sugar; for association with sweetness: univariate models
Experimental: as §1, §2, §3
In conducting the multiple regression analysis on the tomato data set, the independent variables were the sugar content (glucose+fructose), and the flavor (indicated by the retronasal perception of volatiles), while the dependent variable was the perceived sweetness.

[5] = test system: sweetness; experiment: Blueberry sensory panels; multiple regression of volatiles against sweetness independent of fructose, glucose and/or sucrose (Table 8); settings: for t Ratio (Fructose): contribution to sweetness independent of fructose; for t Ratio (Glucose): contribution to sweetness independent of glucose; for t Ratio (Sucrose): contribution to sweetness independent of sucrose
Source text: Panelists were trained with the scaling methods and were encouraged to return for the remainder of the study. […] Panelists were also asked to rate the intensity of taste and flavor sensations of a hypothetical ideal blueberry on this scale. Each panelist received two to four berries of five to six genotypes in a single panel in a Williams design, which was generated by Compusense 5.6 (Compusense Inc., Guelph, Ontario, Canada). They were asked to eat the blueberries of each genotype at once, and to take a bite of cracker and sip of water in between samples. Ratings were recorded using Compusense software.
Soluble solids content (SSC), titratable acidity (TA), and volatiles were quantified as described above for tomato and strawberries. The volatiles were collected for two hours via dynamic headspace with HaySep Q 80-100 porous polymer adsorbent (Valco Instruments Company Inc., Houston, Tex.) and eluted with methylene chloride and nonyl acetate as an elution standard. […] Integrated peak area of each signal was normalized for elution, fitted to relative pure chemical response, corrected for sample mass, and expressed as nanograms per gram fresh weight per hour (ng gFW-1 h-1). Response fitting was calculated using the response factor of pure chemical standards (Sigma-Aldrich, St. Louis, Mo.) run on the same instrument.
Pair-wise correlations and significance between sensory measurements and primary bio-chemical components were calculated, with panelist as a random effect. Least Square Means (LSMeans) of the sensory data for each sample were obtained to account of the random effect of panelist. […] The response variables (Y) considered corresponded to LSMeans of overall liking, sweetness, sourness, and blueberry flavor intensity. Glucose, fructose, sucrose, TA, pH, and 52 volatile compounds were considered as explanatory variables (X). The inclusion of texture liking was evaluated independently given that no explanatory physical measure was made for sample texture. […] The model was created without texture for analysis.

[6] = test system: sweetness; experiment: Blueberry sensory panels; PLS analysis, sweetness (Table 7); settings: multivariate regression analysis
Experimental: Sensory analysis was conducted similar to described above for tomatoes and strawberries in Examples 1 and 3. […] Panelists were trained with the scaling methods and were encouraged to return for the remainder of the study. Panelists rated overall liking, texture liking, sweetness, sourness, and flavor intensity using hedonic general Labeled Magnitude Scales (gLMS) (−100 to +100; −100=greatest disliking of any kind, +100=greatest liking of any kind) and intensity gLMS (0 to +100; 0=no sensation, 100=most intense sensation of any kind), which allow for improved comparison between panelists and between years (see Bartoshuk, L. M., et al., 2004 and Bartoshuk, L. M., et al., 2005). Panelists were also asked to rate the intensity of taste and flavor sensations of a hypothetical ideal blueberry on this scale. Each panelist received two to four berries of five to six genotypes in a single panel in a Williams design, which was generated by Compusense 5.6 (Compusense Inc., Guelph, Ontario, Canada). They were asked to eat the blueberries of each genotype at once, and to take a bite of cracker and sip of water in between samples. Ratings were recorded using Compusense software.
Soluble solids content (SSC), titratable acidity (TA), and volatiles were quantified as described above for tomato and strawberries. The volatiles were collected for two hours via dynamic headspace with HaySep Q 80-100 porous polymer adsorbent (Valco Instruments Company Inc., Houston, Tex.) and eluted with methylene chloride and nonyl acetate as an elution standard. Elutions were run on an Agilent 7890A Gas Chromatograph Flame Ionization Detector (GC-FID) DB-5 column (30 m length×[…]) for quantification and on an Agilent 7890A Gas Chromatograph coupled to an Agilent 5977A Mass Selective Detector (GC/MSD) for qualification (Agilent, Santa Clara, Calif.). Integrated peak area of each signal was normalized for elution, fitted to relative pure chemical response, corrected for sample mass, and expressed as nanograms per gram fresh weight per hour (ng gFW-1 h-1). Response fitting was calculated using the response factor of pure chemical standards (Sigma-Aldrich, St. Louis, Mo.) run on the same instrument.
Pair-wise correlations and significance between sensory measurements and primary bio-chemical components were calculated, with panelist as a random effect. Least Square Means (LSMeans) of the sensory data for each sample were obtained to account of the random effect of panelist. A partial least squares (PLS) analysis was constructed in JMP1 Pro 10 (SAS Institute Inc., Cary, N.C.) to reveal effectors of sensory ratings (see, e.g., Togari N., et al., 1995; Hough, G., et al., 1996; deKermadec, F., et al., 1997; Toscas, P. J., et al., 1999; and Tenenhaus, M., et al., 2005). The response variables (Y) considered corresponded to LSMeans of overall liking, sweetness, sourness, and blueberry flavor intensity. Glucose, fructose, sucrose, TA, pH, and 52 volatile compounds were considered as explanatory variables (X). The inclusion of texture liking was evaluated independently given that no explanatory physical measure was made for sample texture. […] The model was created without texture for analysis.
• Top six and bottom six biochemical measures explaining sensory responses as determined by partial least squares (PLS) analysis. […]

neryl propanoate/Geranyl isobutanoate
Total Sugar t Ratio [1]: 2.298

CC1=CC[C@H]2[C@H]3[C@@H]1[C@]2(C)CC[C@H]3C(C)C [copaene]
Total Sugar t Ratio [1]: 2.06

C/C=C/C(=O)C1=C(C)C=CCC1(C)C [β-damascenone]
FRUCTOSE t RATIO [2]: 0.138
GLUCOSE t RATIO [2]: 0.678
association with flavor intensity [3]: not associated with tomato flavor intensity
t [4]: 1.012

CC1=CC[C@H]2C(C)=CC[C@@H](C(C)C)[C@@H]2C1 [β-cadinene]
Total Sugar t Ratio [1]: 2.69

C/C=C(C)/C=C/C=C(C)C [E,E-alloocimene]
Total Sugar t Ratio [1]: 3.337

C=C(C)[C@@H]1CCC2=CCC[C@@H](C)[C@]2(C)C1 [valencene]
Total Sugar t Ratio [1]: 2.206

C=C(C)[C@H]1CC=C(C)CC1 [D-Limonene]
t Ratio (Fructose) [5]: 1.176
t Ratio (Glucose) [5]: .954
t Ratio (Sucrose) [5]: .609

CC1=C(C=O)C(C)(C)CCC1 [beta-cyclocitral]
FRUCTOSE t RATIO [2]: 1.905
GLUCOSE t RATIO [2]: 1.688
t [4]: 1.186

CC1=CCCC2(C)CCC3C(C)(C)CC132 (stereo not drawn) [α-panasinsen]
Total Sugar t Ratio [1]: 2.909

CC(=O)/C=C/C1=C(C)CCCC1(C)C [β-ionone]
Total Sugar t Ratio [1]: 1.28
FRUCTOSE t RATIO [2]: 2.12
GLUCOSE t RATIO [2]: 1.748
t [4]: 1.135

C=C(C)[C@@H]1CC[C@@]2(C)CCC=C(C)[C@@H]2C1 [α-selinene]
Total Sugar t Ratio [1]: 2.428

C=C(C)[C@@H]1CCC2=CCC[C@H](C)[C@@]2(C)C1 [Eremophilene]
Total Sugar t Ratio [1]: 1.738

N[C@@H](CCC(=O)O)C(=O)O [glutamatic acid]
FRUCTOSE t RATIO [2]: −1.746
GLUCOSE t RATIO [2]: −2.953

C=C(C)[C@H]1C=C[C@](C)(O)CC1 [E-p-mentha-2,8-dien-1-ol]
Total Sugar t Ratio [1]: 1.258

CCCCCC(C)=O [2-Heptanone]
independent enhancement of perception of sweetness [6]: independently enhancing perception of sweetness

C=CC1(C)CCC(C(C)(C)O)O1 (stereo not drawn) [(Z)-linalool oxide (furanoid)]
t Ratio (Fructose) [5]: 1.154
t Ratio (Glucose) [5]: 1.356
t Ratio (Sucrose) [5]: 1.079

C[Si](C)(C)CCOC(=O)CC(=O)OCC[Si](C)(C)C [Malonic acid, bis(2-trimethylsilylethyl ester]
Total Sugar t Ratio [1]: 3.148

C[Si](C)(O)O [Silanediol, dimethyl-]
Total Sugar t Ratio [1]: 1.781

CC(=O)/C=C/C1C(C)=CCCC1(C)C (stereo not drawn) [α-ionone]
Total Sugar t Ratio [1]: 2.042

C=C(C)[C@@H]1CC=C(C)[C@@H](O)C1 (relative stereo) [carveol, trans]
Total Sugar t Ratio [1]: 2.542

b-caryophyllene/aromadendrene
Total Sugar t Ratio [1]: 1.565

C=C1CCCC2(C)CCC(=C(C)C)CC12 (stereo not drawn) [γ-Selinene]
Total Sugar t Ratio [1]: 4.272

CC(C)CCO [3-methyl-1-butanol]
association with flavor intensity after accounting for fructose [3]: significant after accounting for fructose
association with flavor intensity [3]: associated with flavor intensity
association with sweetness after accounting for fructose ([4]; tomato): significant after accounting for fructose
association with sweetness ([4]; tomato): showed evidence for association with sweetness

C=C1CC[C@H]2O[C@]2(C)CC[C@@H]2[C@@H]1CC2(C)C [(—)-Caryophyllene oxide]
t Ratio (Fructose) [5]: 1.845
t Ratio (Glucose) [5]: 1.608
t Ratio (Sucrose) [5]: .982

C=C(C)C1=C[C@]2(C)C(=CC1)CCC[C@H]2C [γ-vetivenene]
Total Sugar t Ratio [1]: 2.469

CSCCC=O [methional]
association with flavor intensity [3]: associated with flavor intensity
association with sweetness ([4]; tomato): showed evidence for association with sweetness
